ChEMBL document CHEMBL1201862, “PubChem BioAssay data set” (2004)
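Assay format: 96-well plates, 48-hour exposure. GI50 is the concentration that inhibits growth by half.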 Active and inactive are the calls of the source. No stated cut-off is given here; in the data, active = GI50 up to about 1.1 µM and inactive = higher.

How the values were obtained:
Experiment in all cases: growth of human tumour cells (NCI), 48 h
786-0 = test system: 786-0
A498 = test system: A498
A549 = test system: A549
ACHN = test system: ACHN
CAKI-1 = test system: CAKI-1
CCRF-CEM = test system: CCRF-CEM
COLO 205 = test system: COLO 205
DLD-1 = test system: DLD-1
DMS-114 = test system: DMS-114
DMS-273 = test system: DMS-273
EKVX = test system: EKVX
HCC 2998 = test system: HCC 2998
HCT-116 = test system: HCT-116
HCT-15 = test system: HCT-15
HL-60 = test system: HL-60
HOP-18 = test system: HOP-18
HOP-62 = test system: HOP-62
HOP-92 = test system: HOP-92
HT-29 = test system: HT-29
IGROV-1 = test system: IGROV-1
K562 = test system: K562
KM-20L2 = test system: KM-20L2
KM12 = test system: KM12
LOX IMVI = test system: LOX IMVI
LXFL 529 = test system: LXFL 529
M14 = test system: M14
M19-MEL = test system: M19-MEL
MOLT-4 = test system: MOLT-4
Malme-3M = test system: Malme-3M
NCI-H226 = test system: NCI-H226
NCI-H23 = test system: NCI-H23
NCI-H460 = test system: NCI-H460
NCI-H522 = test system: NCI-H522
OVCAR-3 = test system: OVCAR-3
OVCAR-4 = test system: OVCAR-4
OVCAR-5 = test system: OVCAR-5
OVCAR-8 = test system: OVCAR-8
RPMI-8226 = test system: RPMI-8226
RXF 393 = test system: RXF 393
RXF 631 = test system: RXF 631
SF-268 = test system: SF-268
SF-295 = test system: SF-295
SF-539 = test system: SF-539
SK-MEL-28 = test system: SK-MEL-28
SK-MEL-2 = test system: SK-MEL-2
SK-MEL-5 = test system: SK-MEL-5
SK-OV-3 = test system: SK-OV-3
SN12C = test system: SN12C
SNB-19 = test system: SNB-19
SNB-75 = test system: SNB-75
SNB-78 = test system: SNB-78
SR = test system: SR
SW-620 = test system: SW-620
TK-10 = test system: TK-10
U-251 = test system: U-251
UACC-257 = test system: UACC-257
UACC-62 = test system: UACC-62
UO-31 = test system: UO-31
XF498 = test system: XF498

## COc1ccc(COC2CC(OC)OC(C)C2OC(=O)c2ccccc2)cc1 (centres undefined)
786-0
  GI50: 74.1 µM (inactive)
A498
  GI50: 61.5 µM (inactive)
A549
  GI50: 33 µM (inactive)
ACHN
  GI50: 24.3 µM (inactive)
CAKI-1
  GI50: 36.5 µM (inactive)
CCRF-CEM
  GI50: 30.3 µM (inactive)
COLO 205
  GI50: 34.6 µM (inactive)
DLD-1
  GI50: 18.7 µM (inactive)
DMS-114
  GI50: 26 µM (inactive)
DMS-273
  GI50: 39.4 µM (inactive)
EKVX
  GI50: 70.1 µM (inactive)
HCC 2998
  GI50: 43.1 µM (inactive)
HCT-116
  GI50: 28.6 µM (inactive)
HCT-15
  GI50: 17.8 µM
HL-60
  GI50: 20.7 µM (inactive)
HOP-18
  GI50: > 100 µM (inactive)
HOP-62
  GI50: > 73.5 µM (inactive)
HOP-92
  GI50: 50 µM (inactive)
HT-29
  GI50: 16.6 µM (inactive)
IGROV-1
  GI50: 90.4 µM (inactive)
K562
  GI50: 27.2 µM (inactive)
KM-20L2
  GI50: 14.7 µM (inactive)
KM12
  GI50: 34.8 µM (inactive)
LOX IMVI
  GI50: 22.6 µM (inactive)
LXFL 529
  GI50: 26.5 µM (inactive)
M14
  GI50: 34.6 µM (inactive)
M19-MEL
  GI50: 34.5 µM (inactive)
MOLT-4
  GI50: 15.6 µM (inactive)
Malme-3M
  GI50: 29 µM (inactive)
NCI-H226
  GI50: 21.7 µM (inactive)
NCI-H23
  GI50: 28.4 µM (inactive)
NCI-H460
  GI50: 36.7 µM (inactive)
NCI-H522
  GI50: 30.6 µM (inactive)
OVCAR-3
  GI50: 31.9 µM (inactive)
OVCAR-4
  GI50: 32.8 µM (inactive)
OVCAR-5
  GI50: 30.2 µM (inactive)
OVCAR-8
  GI50: 31.6 µM (inactive)
RPMI-8226
  GI50: 18.5 µM (inactive)
RXF 393
  GI50: 19.1 µM (inactive)
RXF 631
  GI50: 30.7 µM (inactive)
SF-268
  GI50: 39.8 µM (inactive)
SF-295
  GI50: 38.5 µM (inactive)
SF-539
  GI50: 54.1 µM (inactive)
SK-MEL-28
  GI50: 41.2 µM (inactive)
SK-MEL-2
  GI50: 54 µM (inactive)
SK-MEL-5
  GI50: 17 µM (inactive)
SK-OV-3
  GI50: > 100 µM (inactive)
SN12C
  GI50: 57.4 µM (inactive)
SNB-19
  GI50: > 64.9 µM (inactive)
SNB-75
  GI50: 38.3 µM (inactive)
SNB-78
  GI50: 41.7 µM (inactive)
SR
  GI50: 19 µM (inactive)
SW-620
  GI50: 46.1 µM (inactive)
TK-10
  GI50: 63.7 µM (inactive)
U-251
  GI50: 35.5 µM (inactive)
UACC-257
  GI50: 40.1 µM (inactive)
UACC-62
  GI50: 32.9 µM (inactive)
UO-31
  GI50: 22.7 µM (inactive)
XF498
  GI50: 21.7 µM (inactive)
